Values quoted from earlier work as cited in patent publication US20260108532A1, “COMPOSITION FOR PREVENTING HEART DISEASES CAUSED BY PULMONARY HYPERTENSION AND TREATING HEART, AND FUNCTIONAL FORMULATION COMPRISING SAME” (CARESIDE CO., LTD., priority 2023, published 2026).

Tests used:
[1] = tested on: dogs with subclinical myxomatous mitral valve disease (MMVD); details: compared with placebo-administered group
[2] = potassium-sparing diuretic such as spironolactone
[3] = tested on: dogs with subclinical (asymptomatic) CMVI; details: at 35 days of administration, compared to placebo administered group
[4] = dogs; long-term administration

## CC(=O)S[C@@H]1CC2=CC(=O)CC[C@]2(C)[C@H]2CC[C@@]3(C)[C@@H](CC[C@@]34CCC(=O)O4)[C@H]12 [spironolactone, Spironolactone]
[1]
  increase in heart size and cardiac biomarker concentration on cardiac ultrasound: much smaller
[2]
  diuretic effect as share of the efficacy of the loop diuretic: ~10%

## COc1ccc(-c2nc3ccc(C4=NNC(=O)CC4C)cc3[nH]2)cc1 (stereo not shown) [pimobendan, Pimobendan]
[3]
  LVIDd and LA/Ao on imaging diagnosis: decreased

## Cc1cccc(Nc2ccncc2S(=O)(=O)NC(=O)NC(C)C)c1 [torsemide, Torsemide]
[4]
  ceiling effect: almost no ceiling effect
